According to US8178668B2, “2-aminopyridine kinase inhibitors” (OSI Pharmaceuticals, LLC, priority 2008, dated 2012):

Assays:
[1] = target: MET (human) (Homo sapiens, UniProt P08581); assay: MET kinase AlphaScreen assay (Km of ATP); assay type: biochemical; settings: ATP at Km; at least duplicate experiments
Procedure, shortened: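 Biotinylated poly(Glu,Tyr) (200 ng/μL) phosphorylated by MET with ATP at an enzyme-optimized level, in 50 mM HEPES pH 7.4 with Mg2+/Mn2+ and vanadate, 1% DMSO. Reaction runs 60 min at RT. PT66 AlphaScreen donor/acceptor beads are added and signal is read after 1 h.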

[2] = target: RON (human) (Homo sapiens, UniProt Q04912); assay: RON kinase AlphaScreen assay (Km of ATP); assay type: biochemical; settings: ATP at Km; at least duplicate experiments
Chain of RON (human) (Q04912 25-1400): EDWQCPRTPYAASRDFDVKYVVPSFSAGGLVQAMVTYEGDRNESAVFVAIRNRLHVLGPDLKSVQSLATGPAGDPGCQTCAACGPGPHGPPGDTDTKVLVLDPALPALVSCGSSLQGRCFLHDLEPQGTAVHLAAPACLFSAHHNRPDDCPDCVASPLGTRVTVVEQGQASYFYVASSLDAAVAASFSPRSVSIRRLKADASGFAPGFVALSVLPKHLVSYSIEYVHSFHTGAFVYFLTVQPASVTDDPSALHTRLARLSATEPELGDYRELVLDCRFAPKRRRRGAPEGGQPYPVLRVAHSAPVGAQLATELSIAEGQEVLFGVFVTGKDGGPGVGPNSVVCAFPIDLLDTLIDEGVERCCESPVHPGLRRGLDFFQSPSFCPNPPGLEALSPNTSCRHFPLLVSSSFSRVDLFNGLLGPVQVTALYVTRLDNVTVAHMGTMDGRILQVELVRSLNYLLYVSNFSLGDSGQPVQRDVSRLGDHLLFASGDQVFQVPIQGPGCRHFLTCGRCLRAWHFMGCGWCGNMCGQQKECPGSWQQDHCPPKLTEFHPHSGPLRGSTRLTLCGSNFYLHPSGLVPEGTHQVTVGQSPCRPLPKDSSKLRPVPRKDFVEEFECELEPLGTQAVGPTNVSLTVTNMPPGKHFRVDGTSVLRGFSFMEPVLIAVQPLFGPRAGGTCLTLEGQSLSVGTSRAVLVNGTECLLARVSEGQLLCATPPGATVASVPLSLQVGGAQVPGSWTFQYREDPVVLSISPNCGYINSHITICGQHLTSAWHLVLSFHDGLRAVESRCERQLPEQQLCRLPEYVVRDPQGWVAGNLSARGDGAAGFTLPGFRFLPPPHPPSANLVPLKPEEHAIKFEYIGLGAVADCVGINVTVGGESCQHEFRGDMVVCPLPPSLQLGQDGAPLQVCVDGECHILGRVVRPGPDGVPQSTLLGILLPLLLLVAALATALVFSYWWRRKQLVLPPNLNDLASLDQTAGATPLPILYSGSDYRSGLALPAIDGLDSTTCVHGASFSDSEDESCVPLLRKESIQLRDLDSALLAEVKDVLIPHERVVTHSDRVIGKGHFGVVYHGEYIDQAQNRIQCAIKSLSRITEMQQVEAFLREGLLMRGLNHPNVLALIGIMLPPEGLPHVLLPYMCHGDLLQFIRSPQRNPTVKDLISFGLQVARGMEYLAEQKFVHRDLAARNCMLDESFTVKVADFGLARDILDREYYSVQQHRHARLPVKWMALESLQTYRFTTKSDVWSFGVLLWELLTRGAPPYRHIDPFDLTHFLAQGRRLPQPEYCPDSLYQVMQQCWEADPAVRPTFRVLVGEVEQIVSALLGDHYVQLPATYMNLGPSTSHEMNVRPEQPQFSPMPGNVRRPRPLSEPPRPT
Procedure, shortened: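 Human RON phosphorylated biotinylated poly(Glu,Tyr) (200 ng/μL) at Km ATP in 50 mM HEPES pH 7.4, 12.5 mM MgCl2, 1% glycerol, 0.334 mM vanadate, 1% DMSO. Reaction ran 30 min at RT after enzyme addition. Product was detected by AlphaScreen with PT66 beads after 1 h.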

Chain of MET (human) (P08581 25-1390): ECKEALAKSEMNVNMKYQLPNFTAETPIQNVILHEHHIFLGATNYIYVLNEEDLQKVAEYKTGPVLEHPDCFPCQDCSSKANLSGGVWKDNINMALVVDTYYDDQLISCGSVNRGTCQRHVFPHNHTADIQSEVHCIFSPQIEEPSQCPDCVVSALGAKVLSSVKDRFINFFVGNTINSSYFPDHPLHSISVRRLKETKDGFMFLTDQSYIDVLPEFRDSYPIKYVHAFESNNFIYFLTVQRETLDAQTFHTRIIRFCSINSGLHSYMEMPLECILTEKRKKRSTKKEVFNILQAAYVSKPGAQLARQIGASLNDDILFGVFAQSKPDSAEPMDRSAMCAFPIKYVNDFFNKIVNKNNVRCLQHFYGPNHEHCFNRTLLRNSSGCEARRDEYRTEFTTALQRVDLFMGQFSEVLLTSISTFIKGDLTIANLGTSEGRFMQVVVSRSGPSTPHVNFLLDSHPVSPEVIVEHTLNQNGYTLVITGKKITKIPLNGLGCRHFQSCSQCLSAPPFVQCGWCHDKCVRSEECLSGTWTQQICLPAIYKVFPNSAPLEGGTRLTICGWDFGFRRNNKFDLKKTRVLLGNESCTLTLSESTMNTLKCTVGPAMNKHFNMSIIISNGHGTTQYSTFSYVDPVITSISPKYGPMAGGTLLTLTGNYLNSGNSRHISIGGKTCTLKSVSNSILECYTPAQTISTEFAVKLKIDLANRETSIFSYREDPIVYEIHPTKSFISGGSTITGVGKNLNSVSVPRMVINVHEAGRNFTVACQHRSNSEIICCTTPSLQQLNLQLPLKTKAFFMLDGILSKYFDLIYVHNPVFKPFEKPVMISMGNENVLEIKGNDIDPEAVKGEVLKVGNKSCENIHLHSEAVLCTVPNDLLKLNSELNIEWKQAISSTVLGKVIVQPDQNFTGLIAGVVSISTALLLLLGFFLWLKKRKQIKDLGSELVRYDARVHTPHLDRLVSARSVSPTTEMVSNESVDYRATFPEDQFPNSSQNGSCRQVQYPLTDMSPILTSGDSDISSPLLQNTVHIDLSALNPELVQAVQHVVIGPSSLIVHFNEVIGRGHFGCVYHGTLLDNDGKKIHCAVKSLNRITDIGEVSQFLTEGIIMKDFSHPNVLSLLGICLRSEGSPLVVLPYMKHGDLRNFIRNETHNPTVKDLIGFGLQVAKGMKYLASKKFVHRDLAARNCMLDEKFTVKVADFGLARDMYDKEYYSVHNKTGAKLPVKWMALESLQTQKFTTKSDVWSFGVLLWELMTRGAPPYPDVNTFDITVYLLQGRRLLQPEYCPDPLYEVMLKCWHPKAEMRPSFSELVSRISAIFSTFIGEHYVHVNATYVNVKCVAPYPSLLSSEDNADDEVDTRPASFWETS

SMILES: CNC(=O)c1ccc(-c2cnc(N)c(-c3nc4ccccc4s3)c2)cc1 [Example 199, 4-(6-Amino-5-benzothiazol-2-ylpyridin-3-yl)-N-methylbenzamide]
- IC50 [1]: 1000 to 20000 nM
- IC50 [2]: 1000 to 20000 nM

SMILES: Nc1ncc(-c2ccc(C(=O)O)cc2)cc1-c1nc2ccccc2s1 [Example 201, 4-(6-Amino-5-benzothiazol-2-ylpyridin-3-yl)-benzoic acid]
- IC50 [1]: 1000 to 20000 nM
- IC50 [2]: 1000 to 20000 nM

SMILES: Nc1ncc(-c2ccc(C(=O)O)nc2)cc1-c1nc2ccccc2s1 [Example 202, 6′-Amino-5′-benzothiazol-2-yl-[3,3′]bipyridinyl-6-carboxylic acid]
- IC50 [1]: 100 to 1000 nM
- IC50 [2]: 1000 to 20000 nM

SMILES: Nc1ncc(-c2cccc(C(=O)N3CCCC3)c2)cc1-c1nc2ccccc2s1 [Example 204, [3-(6-Amino-5-benzothiazol-2-ylpyridin-3-yl)phenyl]pyrrolidin-1-ylmethanone]
- IC50 [1]: 1000 to 20000 nM
- IC50 [2]: > 20000 nM

SMILES: CC(=O)NCCNC(=O)c1cccc(-c2cnc(N)c(-c3nc4ccccc4s3)c2)c1 [Example 205, N-(2-Acetylaminoethyl)-3-(6-amino-5-benzothiazol-2-ylpyridin-3-yl)benzamide]
- IC50 [1]: 1000 to 20000 nM
- IC50 [2]: 1000 to 20000 nM

SMILES: Nc1ncc(-c2cccc(C(=O)N3CCCCC3)c2)cc1-c1nc2ccccc2s1 [Example 206, [3-(6-Amino-5-benzothiazol-2-ylpyridin-3-yl)phenyl]piperidin-1-ylmethanone]
- IC50 [1]: 1000 to 20000 nM
- IC50 [2]: > 20000 nM

SMILES: CCN(CC)CCNC(=O)c1cccc(-c2cnc(N)c(-c3nc4ccccc4s3)c2)c1 [Example 207, 3-(6-Amino-5-benzothiazol-2-ylpyridin-3-yl)-N-(2-diethylaminoethyl)benzamide]
- IC50 [1]: 1000 to 20000 nM
- IC50 [2]: 1000 to 20000 nM

SMILES: C[C@@H]1CN(C(=O)c2cccc(-c3cnc(N)c(-c4nc5ccccc5s4)c3)c2)C[C@H](C)N1 [Example 208, [3-(6-Amino-5-benzothiazol-2-ylpyridin-3-yl)phenyl]-(cis-3,5-dimethylpiperazin-1-yl)methanone]
- IC50 [1]: 100 to 1000 nM
- IC50 [2]: 1000 to 20000 nM

SMILES: Nc1ncc(-c2cccc(C(=O)NCCCN3CCCC3)c2)cc1-c1nc2ccccc2s1 [Example 209, 3-(6-Amino-5-benzothiazol-2-ylpyridin-3-yl)-N-(3-pyrrolidin-1-ylpropyl)benzamide]
- IC50 [1]: 1000 to 20000 nM
- IC50 [2]: 1000 to 20000 nM

SMILES: CN1CCC(N(C)C(=O)c2cccc(-c3cnc(N)c(-c4nc5ccccc5s4)c3)c2)CC1 [Example 210, 3-(6-Amino-5-benzothiazol-2-ylpyridin-3-yl)-N-methyl-N-(1-methylpiperidin-4-yl)benzamide]
- IC50 [1]: 100 to 1000 nM
- IC50 [2]: 1000 to 20000 nM

SMILES: Nc1ncc(-c2cccc(C(=O)N3CCN(CC(=O)N4CCCC4)CC3)c2)cc1-c1nc2ccccc2s1 [Example 211, 2-{4-[3-(6-Amino-5-benzothiazol-2-ylpyridin-3-yl)benzoyl]piperazin-1-pyrrolidin-1-yl}-1-ylethanone]
- IC50 [1]: 1000 to 20000 nM
- IC50 [2]: 1000 to 20000 nM

SMILES: CC(=O)N1CCN(C(=O)c2cccc(-c3cnc(N)c(-c4nc5ccccc5s4)c3)c2)CC1 [Example 212, 1-{4-[3-(6-Amino-5-benzothiazol-2-ylpyridin-3-yl)benzoyl]piperazin-1-yl}ethanone]
- IC50 [1]: 1000 to 20000 nM
- IC50 [2]: > 20000 nM

SMILES: Nc1ncc(-c2cccc(C(=O)N3CCCC(O)C3)c2)cc1-c1nc2ccccc2s1 (stereo not drawn) [Example 213, [3-(6-Amino-5-benzothiazol-2-ylpyridin-3-yl)phenyl]-(3-hydroxypiperidin-1-yl)methanone]
- IC50 [1]: 1000 to 20000 nM
- IC50 [2]: 1000 to 20000 nM

SMILES: C[C@@H]1CN(C(=O)c2cccc(-c3cnc(N)c(-c4nc5ccccc5s4)c3)c2)C[C@H](C)O1 [Example 214, [3-(6-Amino-5-benzothiazol-2-ylpyridin-3-yl)phenyl]-(cis-2,6-dimethylmorpholin-4-yl)methanone]
- IC50 [1]: 1000 to 20000 nM
- IC50 [2]: > 20000 nM

SMILES: CN(C)C(=O)CN1CCN(C(=O)c2cccc(-c3cnc(N)c(-c4nc5ccccc5s4)c3)c2)CC1 [Example 215, 2-{4-[3-(6-Amino-5-benzothiazol-2-ylpyridin-3-yl)benzoyl]piperazin-1-yl}-N,N-dimethylacetamide]
- IC50 [1]: 1000 to 20000 nM
- IC50 [2]: 1000 to 20000 nM

SMILES: COCCN(CCOC)C(=O)c1cccc(-c2cnc(N)c(-c3nc4ccccc4s3)c2)c1 [Example 216, 3-(6-Amino-5-benzothiazol-2-ylpyridin-3-yl)-N,N-bis-(2-methoxyethyl)benzamide]
- IC50 [1]: > 20000 nM
- IC50 [2]: > 20000 nM

SMILES: Nc1ncc(-c2cccc(C(=O)N3CCC(N4CCCC4)CC3)c2)cc1-c1nc2ccccc2s1 [Example 217, [3-(6-Amino-5-benzothiazol-2-ylpyridin-3-yl)phenyl]-(4-pyrrolidin-1-ylpiperidin-1-yl)methanone]
- IC50 [1]: 100 to 1000 nM
- IC50 [2]: 1000 to 20000 nM

SMILES: CN1CCC(NC(=O)c2cccc(-c3cnc(N)c(-c4nc5ccccc5s4)c3)c2)CC1 [Example 218, 3-(6-Amino-5-benzothiazol-2-ylpyridin-3-yl)-N-(1-methylpiperidin-4-yl)benzamide]
- IC50 [1]: 100 to 1000 nM
- IC50 [2]: 1000 to 20000 nM

SMILES: NC(=O)C1CCN(C(=O)c2cccc(-c3cnc(N)c(-c4nc5ccccc5s4)c3)c2)CC1 [Example 219, 1-[3-(6-Amino-5-benzothiazol-2-ylpyridin-3-yl)benzoyl]piperidine-4-carboxylic acid amide]
- IC50 [1]: 100 to 1000 nM
- IC50 [2]: > 20000 nM

SMILES: CN(C)CCN(C)C(=O)c1cccc(-c2cnc(N)c(-c3nc4ccccc4s3)c2)c1 [Example 220, 3-(6-Amino-5-benzothiazol-2-ylpyridin-3-yl)-N-(2-dimethylaminoethyl)-N-methylbenzamide]
- IC50 [1]: 100 to 1000 nM
- IC50 [2]: 1000 to 20000 nM

SMILES: Nc1ncc(-c2cccc(C(=O)N[C@H]3CCCC[C@@H]3O)c2)cc1-c1nc2ccccc2s1 [Example 221, 3-(6-Amino-5-benzothiazol-2-ylpyridin-3-yl)-N-((1S,2S)-2-hydroxycyclohexyl)benzamide]
- IC50 [1]: 1000 to 20000 nM
- IC50 [2]: 1000 to 20000 nM

SMILES: Nc1ncc(-c2cccc(C(=O)N3CCC(O)C3)c2)cc1-c1nc2ccccc2s1 (stereo not drawn) [Example 222, [3-(6-Amino-5-benzothiazol-2-ylpyridin-3-yl)phenyl]-(3-hydroxypyrrolidin-1-yl)methanone]
- IC50 [1]: 1000 to 20000 nM
- IC50 [2]: 1000 to 20000 nM

SMILES: Nc1ncc(-c2cccc(C(=O)NCCCn3ccnc3)c2)cc1-c1nc2ccccc2s1 [Example 223, 3-(6-Amino-5-benzothiazol-2-ylpyridin-3-yl)-N-(3-imidazol-1-ylpropyl)benzamide]
- IC50 [1]: 1000 to 20000 nM
- IC50 [2]: 1000 to 20000 nM

SMILES: CN(C)C1CCN(C(=O)c2cccc(-c3cnc(N)c(-c4nc5ccccc5s4)c3)c2)C1 (stereo not drawn) [Example 224, [3-(6-Amino-5-benzothiazol-2-ylpyridin-3-yl)phenyl]-(3-dimethylaminopyrrolidin-1-yl)methanone]
- IC50 [1]: 100 to 1000 nM
- IC50 [2]: 1000 to 20000 nM

SMILES: Nc1ncc(-c2cccc(C(=O)NCCCN3CCOCC3)c2)cc1-c1nc2ccccc2s1 [Example 225, 3-(6-Amino-5-benzothiazol-2-ylpyridin-3-yl)-N-(3-morpholin-4-ylpropyl)benzamide]
- IC50 [1]: 1000 to 20000 nM
- IC50 [2]: 1000 to 20000 nM

SMILES: CN1CCCN(C(=O)c2cccc(-c3cnc(N)c(-c4nc5ccccc5s4)c3)c2)CC1 [Example 226, [3-(6-Amino-5-benzothiazol-2-ylpyridin-3-yl)phenyl]-(4-methyl-[1,4]diazepan-1-yl)methanone]
- IC50 [1]: 100 to 1000 nM
- IC50 [2]: 1000 to 20000 nM

SMILES: Nc1ncc(-c2cccc(C(=O)N3CCC(F)(F)C3)c2)cc1-c1nc2ccccc2s1 [Example 227, [3-(6-Amino-5-benzothiazol-2-ylpyridin-3-yl)phenyl]-(3,3-difluoropyrrolidin-1-yl)methanone]
- IC50 [1]: 1000 to 20000 nM
- IC50 [2]: 1000 to 20000 nM

SMILES: C[C@@H]1CN(C(=O)c2cccc(-c3cnc(N)c(-c4nc5ccccc5s4)c3)c2)C[C@H](C)N1C [Example 228, [3-(6-Amino-5-benzothiazol-2-ylpyridin-3-yl)phenyl]-(cis-3,4,5-trimethylpiperazin-1-yl)methanone]
- IC50 [1]: 100 to 1000 nM
- IC50 [2]: 1000 to 20000 nM

SMILES: Nc1ncc(-c2cc3ccccc3[nH]2)cc1-c1nc2ccccc2s1 [Example 229, 3-(1,3-Benzothiazol-2-yl)-5-(1H-indol-2-yl)pyridin-2-amine]
- IC50 [1]: 1000 to 20000 nM
- IC50 [2]: 1000 to 20000 nM

SMILES: Nc1ncc(-c2ccc[nH]2)cc1-c1nc2ccccc2s1 [Example 230, 3-(1,3-Benzothiazol-2-yl)-5-(1H-pyrrol-2-yl)pyridin-2-amine]
- IC50 [1]: 1000 to 20000 nM
- IC50 [2]: 1000 to 20000 nM

SMILES: CS(=O)(=O)Nc1ccc(-c2cnc(N)c(-c3nc4ccccc4s3)c2)cc1 [Example 231, N-4-[6-Amino-5-(1,3-benzothiazol-2-yl)pyridin-3-yl]phenylmethanesulfonamide]
- IC50 [1]: 1000 to 20000 nM
- IC50 [2]: 1000 to 20000 nM

SMILES: Nc1ncc(C2=CCNCC2)cc1-c1nc2ccccc2s1 [Example 232, 5-(1,3-Benzothiazol-2-yl)-1′,2′,3′,6′-tetrahydro-3,4′-bipyridin-6-amine]
- IC50 [1]: 100 to 1000 nM
- IC50 [2]: 1000 to 20000 nM

SMILES: Nc1ncc(-c2cccc(O)c2)cc1-c1nc2ccccc2s1 [Example 233, 3-[6-Amino-5-(1,3-benzothiazol-2-yl)pyridin-3-yl]phenol]
- IC50 [1]: 1000 to 20000 nM
- IC50 [2]: > 20000 nM

SMILES: COC(=O)COc1cccc(-c2cnc(N)c(-c3nc4ccccc4s3)c2)c1 [Example 234, Methyl 3-[6-amino-5-(1,3-benzothiazol-2-yl)pyridin-3-yl]phenoxyacetate]
- IC50 [1]: 1000 to 20000 nM
- IC50 [2]: > 20000 nM

SMILES: Nc1ncc(-c2cccc(OCC(=O)O)c2)cc1-c1nc2ccccc2s1 [Example 235, [3-(6-Amino-5-benzothiazol-2-yl-pyridin-3-yl)-phenoxy]acetic acid]
- IC50 [1]: 1000 to 20000 nM
- IC50 [2]: 1000 to 20000 nM

SMILES: CCOC(=O)COc1ccc(-c2cnc(N)c(-c3nc4ccccc4s3)c2)cc1 [Example 236, Ethyl 4-[6-amino-5-(1,3-benzothiazol-2-yl)pyridin-3-yl]phenoxyacetate]
- IC50 [1]: 1000 to 20000 nM
- IC50 [2]: 1000 to 20000 nM
